36 compounds from ChEMBL document CHEMBL4483862, “Open-source discovery of chemical leads for next-generation chemoprotective antimalarials” (2018) can be followed below.

The experiment deals with Plasmodium berghei. As to the kind of experiment: Luciferase/luciferin-expressing antifolate-resistant parasites were used to infect a culture of HepG2 cells that were pre-incubated with compounds. Infected hepatocytes emit light due to the luciferase reaction. Assay results are presented as the percent inhibition of light emission compared to control. […]. It counts as functional. The note with it: sporozoite; for IC90: read-out: LUCIFERASE INFECTION ASSAY - IC90.

In the case of `CC(Sc1ncnc2sc(-c3ccccc3)cc12)C(=O)N1CCNC1=O` (configuration not stated), the IC90 is above 10 µM. Moreover, the IC50 (PBLUC_HILL_SLOPE 3.73, PBLUC_R_SQUARED 0.46, read-out: LUCIFERASE INFECTION ASSAY - IC50) was determined as 5.98 µM.
With `O=C(Nc1cccc(Cl)c1)Nc1cccc(Cl)c1`, the IC90 was 5.51 µM. Moreover, the IC50 (PBLUC_HILL_SLOPE 3.72, PBLUC_R_SQUARED 0.618, read-out: LUCIFERASE INFECTION ASSAY - IC50) came out at 3.05 µM.
As for `CN1CCN(C(=O)c2cccc(-c3cnc4cnc(-c5ccccc5Oc5ccccc5)cn34)c2)CC1`, the 90% effect concentration (IC90) was above 6.74 µM. Further, the IC50 (PBLUC_HILL_SLOPE 3.72, PBLUC_R_SQUARED 0.499, read-out: LUCIFERASE INFECTION ASSAY - IC50) is 3.93 µM.
With `c1ccc(Oc2ccccc2-c2cn3c(-c4ccncc4)cnc3cn2)cc1`, the IC90 came to 8.82 µM. Further, where the note is “PBLUC_HILL_SLOPE 3.74, PBLUC_R_SQUARED 0.758, read-out: LUCIFERASE INFECTION ASSAY - IC50”, the IC50 worked out at 4.9 µM.
Turning to `COc1ccc(Cn2nc(C(=O)NC3CCCC3)c3c2CCN(C(=O)c2cc4ccccc4o2)C3)cc1`, the IC90 was above 6.62 µM. Moreover, under “PBLUC_HILL_SLOPE 3.73, PBLUC_R_SQUARED 0.19, read-out: LUCIFERASE INFECTION ASSAY - IC50”, the IC50 came out at 4.5 µM.
`Cc1cc(C(=O)NCCc2cccc(F)c2)c(C)n1C(C)C`: the IC90 was 0.0364 µM. In addition, where the note is “PBLUC_HILL_SLOPE 3.76, PBLUC_R_SQUARED 0.418, read-out: LUCIFERASE INFECTION ASSAY - IC50”, the IC50 was 0.0203 µM.
With `Cc1nc2ccccc2n1CCC(=O)Nc1cccc(C(F)(F)F)c1`, the IC90 was 8.78 µM. Besides, the IC50 (PBLUC_HILL_SLOPE 3.83, PBLUC_R_SQUARED 0.29, read-out: LUCIFERASE INFECTION ASSAY - IC50) was found to be 4.95 µM.
As for `O=C(NCCCn1cnc2ccccc21)c1ccccc1Nc1ccccc1`, the IC90 is above 10 µM. For the same compound, under “PBLUC_HILL_SLOPE 3.77, PBLUC_R_SQUARED 0.592, read-out: LUCIFERASE INFECTION ASSAY - IC50”, the IC50 is 7.09 µM.
Consider `COc1cccc(-c2nc3ccc(NC(=O)Nc4ccc5c(c4)OCO5)cn3n2)c1`, for which the IC90 was above 10 µM. Besides, for the setting “PBLUC_HILL_SLOPE 3.78, PBLUC_R_SQUARED 0.75, read-out: LUCIFERASE INFECTION ASSAY - IC50”, the half-inhibitory concentration (IC50) is 7.06 µM.
On to `COc1ccc(-c2cc(-c3nnc4n3CCCCC4)c3c(C)nn(-c4ccccc4)c3n2)cc1`, for which the IC90 is above 10 µM. The IC50 (PBLUC_HILL_SLOPE 3.73, PBLUC_R_SQUARED 0.529, read-out: LUCIFERASE INFECTION ASSAY - IC50) is 5.69 µM.
Regarding `CC(=O)c1cccc(-c2cnc3cnc(-c4ccccc4Cl)cn23)c1`, the IC90 is above 9.49 µM. For the same compound, the IC50 (PBLUC_HILL_SLOPE 3.8, PBLUC_R_SQUARED 0.614, read-out: LUCIFERASE INFECTION ASSAY - IC50) was 6.8 µM.
Turning to `Cc1sc2[nH]c(CSCC(=O)c3cc(C)n(-c4ccc(Br)cc4)c3C)nc(=O)c2c1C`, the IC90 is above 10 µM. The IC50 (PBLUC_HILL_SLOPE 3.74, PBLUC_R_SQUARED 0.361, read-out: LUCIFERASE INFECTION ASSAY - IC50) worked out at 6.79 µM.
Turning to `Cc1nn(-c2ccc(C(=O)N(Cc3ccccc3)Cc3nc(=O)c4ccccc4[nH]3)cc2)c(C)c1Cl`, the IC90 was determined as 3.52 µM. Also, the IC50 (PBLUC_HILL_SLOPE 3.8, PBLUC_R_SQUARED 0.516, read-out: LUCIFERASE INFECTION ASSAY - IC50) was found to be 1.98 µM.
For the compound `CCOc1ccccc1C=C(c1nc2ccccc2s1)c1nc2ccccc2s1`, the concentration for an effect of 90% (IC90) amounted to 9.81 µM. For the setting “PBLUC_HILL_SLOPE 3.78, PBLUC_R_SQUARED 0.344, read-out: LUCIFERASE INFECTION ASSAY - IC50”, the IC50 came to 5.48 µM.
For `CN(Cc1ccc2c(c1)OCO2)c1ccc(C(=O)NC2CC2)cn1`, the 90% effect concentration (IC90) is above 10 µM. Also, the IC50 (PBLUC_HILL_SLOPE 3.82, PBLUC_R_SQUARED 0.17, read-out: LUCIFERASE INFECTION ASSAY - IC50) came out at 6.72 µM.
With `Cc1cc(C(=O)N2CCc3sccc3C2)c2c(C)noc2n1`, the 90% effect concentration (IC90) was above 10 µM. Besides, the IC50 (PBLUC_HILL_SLOPE 3.72, PBLUC_R_SQUARED 0.0188, read-out: LUCIFERASE INFECTION ASSAY - IC50) is above 10 µM.
Regarding `COc1cc(NC(=O)N2CCc3nc(Nc4cc(C)cc(C)c4)ncc3C2)cc(OC)c1OC`, the IC90 is above 7.12 µM. Under “PBLUC_HILL_SLOPE 3.8, PBLUC_R_SQUARED 0.0984, read-out: LUCIFERASE INFECTION ASSAY - IC50”, the 50% inhibitory concentration (IC50) was 4.59 µM.
Consider `Cn1cc(-c2cn3c(-c4cccc(OC(F)(F)F)c4)cnc3cn2)cn1`, for which the IC90 was above 9.18 µM. Moreover, the IC50 (PBLUC_HILL_SLOPE 3.72, PBLUC_R_SQUARED 0.643, read-out: LUCIFERASE INFECTION ASSAY - IC50) is 5.44 µM.
On to `CC(C)CN1C(=O)N(C)C(=O)C12CCN(Cc1cc3ccccc3s1)CC2`, for which the IC90 was above 8.56 µM. For the same compound, the IC50 (PBLUC_HILL_SLOPE 3.77, PBLUC_R_SQUARED 0.71, read-out: LUCIFERASE INFECTION ASSAY - IC50) worked out at 6.78 µM.
On to `CC(C)N(C(C)C)S(=O)(=O)c1ccc(NNC(=O)Nc2ccccc2F)nc1`, for which the IC90 is above 10 µM. In addition, under “PBLUC_HILL_SLOPE 3.78, PBLUC_R_SQUARED 0.132, read-out: LUCIFERASE INFECTION ASSAY - IC50”, the half-inhibitory concentration (IC50) came out at 6.19 µM.
Take `CCCn1c(N)c(C(=O)COC(=O)C2(c3ccc(F)cc3)CCCC2)c(=O)[nH]c1=O`: the IC90 worked out at 8.39 µM. Moreover, the IC50 (PBLUC_HILL_SLOPE 3.75, PBLUC_R_SQUARED 0.743, read-out: LUCIFERASE INFECTION ASSAY - IC50) came to 4.66 µM.
Regarding `O=C(CN1CCN(C(=O)/C=C/c2sc3ccccc3c2Cl)CC1)NC1CC1`, the IC90 is 8.7 µM. In addition, where the note is “PBLUC_HILL_SLOPE 3.79, PBLUC_R_SQUARED 0.282, read-out: LUCIFERASE INFECTION ASSAY - IC50”, the IC50 stood at 4.87 µM.
As for `Clc1ccc(Nc2nccc3nc(-c4ccccc4)[nH]c23)cc1`, the IC90 is above 10 µM. Where the note is “PBLUC_HILL_SLOPE 3.81, PBLUC_R_SQUARED 0.353, read-out: LUCIFERASE INFECTION ASSAY - IC50”, the IC50 came to 6.7 µM.
In the case of `CSc1sc(-c2ccnc(SCc3ccc(Cl)cc3)n2)c(-c2ccccc2)c1C#N`, the IC90 is above 7.08 µM. Also, the IC50 (PBLUC_HILL_SLOPE 3.73, PBLUC_R_SQUARED 0.295, read-out: LUCIFERASE INFECTION ASSAY - IC50) was 4.71 µM.
Consider `O=C(NCc1ccccc1)/C(=C/c1cn(-c2ccccc2)nc1-c1cccs1)c1nc2ccccc2[nH]1`, for which the IC90 was found to be 9.82 µM. Besides, the IC50 (PBLUC_HILL_SLOPE 3.73, PBLUC_R_SQUARED 0.245, read-out: LUCIFERASE INFECTION ASSAY - IC50) came out at 5.45 µM.
In the case of `CCCCN(C)S(=O)(=O)c1ccc(NC(=O)c2cccc(C(F)(F)F)c2)cc1`, the IC90 was above 10 µM. Also, the IC50 (PBLUC_HILL_SLOPE 3.75, PBLUC_R_SQUARED 0.618, read-out: LUCIFERASE INFECTION ASSAY - IC50) turned out to be 5.87 µM.
With `CC(C)(C)c1cc(NC(=O)CN2CCN(CCOc3ccccc3)CC2)n(-c2ccccc2)n1`, the IC90 was above 10 µM. In addition, the IC50 (PBLUC_HILL_SLOPE 3.74, PBLUC_R_SQUARED 0.753, read-out: LUCIFERASE INFECTION ASSAY - IC50) worked out at 6.22 µM.
Turning to `CCc1nc(N2CCN(C(=O)c3ccco3)CC2)c2ccc(Cl)cc2n1`, the IC90 was above 8.9 µM. The IC50 (PBLUC_HILL_SLOPE 3.74, PBLUC_R_SQUARED 0.373, read-out: LUCIFERASE INFECTION ASSAY - IC50) worked out at 6.91 µM.
With `c1ccc(OCCCN2CCC(c3nc4ccccc4s3)CC2)cc1`, the IC90 was above 9.36 µM. The IC50 (PBLUC_HILL_SLOPE 3.81, PBLUC_R_SQUARED 0.48, read-out: LUCIFERASE INFECTION ASSAY - IC50) amounted to 7.8 µM.
Turning to `CN(c1ccccc1)c1ccc(/C=N/NC(=O)c2ccc3c(=O)n4c(nc3c2)CCCCC4)cc1`, the IC90 was above 10 µM. For the same compound, the half-maximal inhibitory concentration (IC50) (PBLUC_HILL_SLOPE 3.8, PBLUC_R_SQUARED 0.483, read-out: LUCIFERASE INFECTION ASSAY - IC50) is 6.28 µM.
Turning to `CCCCOC1(c2ccc(C)cc2)N=C(SCC(=O)NCC(C)C)NN=C1c1ccc(C)cc1` (configuration not stated), the IC90 was above 10 µM. The IC50 (PBLUC_HILL_SLOPE 3.83, PBLUC_R_SQUARED 0.417, read-out: LUCIFERASE INFECTION ASSAY - IC50) was 6.12 µM.
In the case of `O=C(Nc1ccc(Oc2ccccc2)cc1)c1noc(-c2ccccc2)n1`, the IC90 was 6.61 µM. The IC50 (PBLUC_HILL_SLOPE 3.74, PBLUC_R_SQUARED 0.217, read-out: LUCIFERASE INFECTION ASSAY - IC50) turned out to be 3.67 µM.
Regarding `O=C(CN1CCN(CCOc2ccccc2)CC1)Nc1cc(C(F)(F)F)ccc1Cl`, the concentration for an effect of 90% (IC90) is above 10 µM. The IC50 (PBLUC_HILL_SLOPE 3.77, PBLUC_R_SQUARED 0.518, read-out: LUCIFERASE INFECTION ASSAY - IC50) was found to be 7.08 µM.
With `Cc1nc(NCCCc2n[nH]c(N)c2C#N)c2c(-c3ccccc3)csc2n1`, the IC90 is 9.77 µM. The IC50 (PBLUC_HILL_SLOPE 3.76, PBLUC_R_SQUARED 0.424, read-out: LUCIFERASE INFECTION ASSAY - IC50) was determined as 5.44 µM.
As for `CCOC(=O)c1c(C)c(C)n(Cc2ccccc2)c1NC(=O)c1ccccc1`, the IC90 is above 8.77 µM. For the setting “PBLUC_HILL_SLOPE 3.81, PBLUC_R_SQUARED 0.298, read-out: LUCIFERASE INFECTION ASSAY - IC50”, the IC50 is 6.38 µM.
Turning to `Oc1cccc(-c2nccc3n[nH]c(-c4cccc(F)c4)c23)c1`, the IC90 is above 10 µM. In addition, the concentration for half-maximal inhibition (IC50) (PBLUC_HILL_SLOPE 3.75, PBLUC_R_SQUARED 0.113, read-out: LUCIFERASE INFECTION ASSAY - IC50) is 6.03 µM.
